This test concerns methionyl-tRNA synthetase (Trypanosoma brucei brucei). Nature of the test: T. brucei MetRS enzyme inhibitors, late-stage follow-up, biochemical, radioactivity, assay provider, round 3 (AID 1053201). The conditions noted are these: recombinant T. brucei MetRS enzyme, [3H]methionine tRNA aminoacylation filter assay, 2 h, stronger effect = higher value.

The source made the active and inactive calls. The rule behind the calls is not given here.

With `CCN(CC)C(=O)Cc1cn(CC(=O)Nc2cccc(C(F)(F)F)c2)c2ccccc12`, the inhibition (as a rule, the drop in the measured response relative to a control, in per cent) is, setting by setting: (at 10 µM) -16.7% (inactive); (inhibition, at 1 µM) -13.1%.
The matching figures for `CCN(CC)C(=O)C(=O)c1cn(CCNc2cc(Oc3ccccc3)cc(C(F)(F)F)c2)c2ccccc12`: 8.12% (inactive) and -20.2%.
Consider `CCN(CC)C(=O)C(=O)c1cn(CC(=O)Nc2cc(Oc3ccccc3OC)cc(C(F)(F)F)c2)c2ccccc12`, for which the inhibition was 98.2% (at 10 µM) and 94.7% (inhibition, at 1 µM).
For `CCN(CC)C(=O)C(=O)c1cn(CC(=O)Nc2cc(Oc3ccccc3F)cc(C(F)(F)F)c2)c2ccccc12`, the inhibition is, setting by setting: (at 10 µM) 95.6%; (inhibition, at 1 µM) 91.9%.
In the same order, the values of `CCN(CC)C(=O)C(=O)c1cn(CC(=O)Nc2cc(Oc3ccc(F)cc3)cc(C(F)(F)F)c2)c2ccccc12` are 97.3% and 93.1%.
In the same order, the values of `CCN(CC)C(=O)C(=O)c1cn(CCNc2cccc(C(F)(F)F)c2)c2ccccc12` are -18.4% (inactive) and -21.5%.
The matching figures for `CCN(CC)C(=O)C(=O)c1cn(CC(=O)Nc2cc(Oc3ccc(OC)cc3)cc(C(F)(F)F)c2)c2ccccc12`: 94.1% and 92.3%.
For `O=C(Cn1cc(C(=O)C(=O)NCc2ccccc2)c2ccccc21)Nc1cc(Oc2ccccc2)cc(C(F)(F)F)c1`, the inhibition runs as follows: (at 10 µM) 47.9% (inactive); (inhibition, at 1 µM) 9.14%.
The matching figures for `O=C(Cc1ccc(Nc2nc3ccc(Br)cc3[nH]2)cc1)NCCc1cccs1`: 23.3% (inactive) and -10.2%.
The matching figures for `Nc1c(Cl)ncnc1Nc1ccc(C(=O)O)cc1`: 43.1% (inactive) and -5.91%.

These data come from PubChem BioAssay AID1053201 (The Scripps Research Institute Molecular Screening Center, 2014).
